Data reported in ChEMBL document CHEMBL1151841, “Dihydrostilbene derivatives from the Mongolian medicinal plant Scorzonera radiata” (J Nat Prod, 2009).
pIC50: −log10 of the molar value. Calls of active or inactive are those of the source. The rule behind the calls is not given here.

What was measured:
[1] = system: Radical scavenging activity; assay: Antioxidant activity assessed as DPPH radical scavenging activity after 5 mins; type: functional
L5178Y = assay: Cytotoxicity against mouse L5178Y cells at 10 ug/mL by MTT assay; type: functional, cell-based

| SMILES | pIC50 [1] | Activity (L5178Y) |
| --- | --- | --- |
| COc1cc(CCc2c(O)ccc(O[C@@H]3O[C@H](CO)[C@@H](O)[C@H](O)[C@H]3O)c2C(C)=O)cc(-c2cc(CCc3c(O)ccc(O[C@@H]4O[C@H](CO)[C@@H](O)[C@H](O)[C@H]4O)c3C(C)=O)cc(OC)c2O)c1O [SCORZODIHYDROSTILBENE E] | 3.99 |  |
| COc1ccc(CCc2c(O)ccc(O[C@@H]3O[C@H](CO)[C@@H](O)[C@H](O)[C@H]3O)c2C(C)=O)cc1OC [SCORZODIHYDROSTILBENE B] | 3.18 | inactive |
| Oc1ccc(/C=C/c2cc(O)cc(O)c2)cc1 [RESVERATROL] | 3.83 |  |
| COc1ccc(CCc2c(O[C@@H]3O[C@H](CO)[C@@H](O)[C@H](O)[C@H]3O)ccc(O)c2C(C)=O)cc1OC [SCORZODIHYDROSTILBENE D] | 3.14 |  |
| COc1cc(CCc2c(O)ccc(O[C@@H]3O[C@H](CO)[C@@H](O)[C@H](O)[C@H]3O)c2C(C)=O)ccc1O [SCORZODIHYDROSTILBENE A] | 3.98 | inactive |
| CC(=O)c1c(O[C@@H]2O[C@H](CO)[C@@H](O)[C@H](O)[C@H]2O)ccc(O)c1CCc1ccc(O)cc1 [SCORZODIHYDROSTILBENE C] | 3.31 |  |
